Assay results as given in publication PMC7567880 (Scientific Reports, 2020).
Read-outs that look alike come from different tables or passages of the source.

How the values were obtained:
[1] = tested on: P. viticola cellulose synthase 2 (PvCesA2), cytoplasmic portion aa 331 to 790; type: binding, Plasmopara viticola; conditions: growth on selective media lacking adenine or histidine, 10 mM 3-AT; sequence found at least three times among 30 colonies
Plasmopara viticola [2] = type: cell-based; conditions: 5 and 7 dpi; for effect on P. viticola disease severity on leaf disks: 200 μM peptide co-inoculated with sporangia, Pinot noir leaf disks, ten replicates from two experiments
Plasmopara viticola [3] = type: cell-based
Plasmopara viticola [4] = type: in vivo; conditions: for disease severity of plants: average ± standard error
Escherichia coli = type: cell-based; conditions: 100 μM and 200 μM in LB medium, 37 °C, OD600 every hour for 5 h, three biological replicates
[5] = tested on: Agrobacterium tumefaciens; type: cell-based; conditions: 100 μM and 200 μM in LB medium, 28 °C, OD600 every hour for 5 h, three biological replicates
[6] = tested on: Bacillus amyloliquefaciens (subsp. plantarum) strain D 747; type: cell-based; conditions: 100 μM and 200 μM in LB medium, 37 °C, OD600 every hour for 5 h, three biological replicates
Erysiphe necator = type: cell-based; conditions: 200 μM and 400 μM, young grapevine leaves, 14 dpi
Phytophthora infestans = type: cell-based; conditions: 100 μM and 200 μM in pea agar medium, 20 °C, radial growth at 4, 5 and 7 dpi
[7] = tested on: Plasmopara viticola zoospores; type: cell-based; conditions: 200 μM, leaf disks, 6 h in the dark at 22 °C, SEM
HKC8 cells = conditions: 400 μM, HKC8 at 1 K, 3 K and 6 K cells/100 μl, four biological replicates
[8] = tested on: Pinot noir leaves, photosystem II; conditions: grapevine leaves, 7 days after treatment, average ± SD of 3 measurements

## H-LFPFVSSM-OH [NoPv2, 8 a.a. peptide aptamer identified by yeast two-hybrid assay using PvCesA2 as bait]
[1]
  peptide aptamers interacting with PvCesA2 (yeast two-hybrid library screening): interacting with PvCesA2
Plasmopara viticola [2]
  effect on P. viticola disease severity on leaf disks: intermediate

## H-MLLHSELC-OH [NoPv3, 8 a.a. peptide aptamer identified by yeast two-hybrid assay using PvCesA2 as bait]
[1]
  peptide aptamers interacting with PvCesA2 (yeast two-hybrid library screening): interacting with PvCesA2
Plasmopara viticola [2]
  effect on P. viticola disease severity on leaf disks: no effect

## H-RLTAQCRL-OH [NoPv1, peptide aptamer of 8 L-amino acid residues, RLTAQCRL, isolated with PvCesA2 as bait]
[1]
  peptide aptamers interacting with PvCesA2 (yeast two-hybrid library screening): interacting with PvCesA2
Plasmopara viticola [2]
  effect on P. viticola disease severity on leaf disks: completely inhibit
Plasmopara viticola [2]; co-inoculation, 20 μM
  anti-oomycete activity on leaf disks: no anti-oomycete activity
Plasmopara viticola [2]; co-inoculation, 50 μM
  P. viticola disease severity on leaf disks: almost half of the control sample
Plasmopara viticola [2]; co-inoculation, concentrations equal or higher than 100 μM
  percentage of leaf disk area covered by P. viticola sporulation: below 10%
Plasmopara viticola [3]; 400 μM applied 7 days before inoculation (-7 d), leaf disks
  treatment efficacy, preventive application: effective in suppressing P. viticola infection
Plasmopara viticola [3]; 400 μM applied +1 h to +2 d after P. viticola inoculation, leaf disks
  treatment efficacy, post-inoculation (curative) application: efficacy decreased very rapidly
Plasmopara viticola [3]; 400 μM sprayed +1 h after inoculation, leaf disks, 7 dpi, mean of ten replicates
  Disease severity: 18.00%
Plasmopara viticola [3]; 400 μM sprayed +1 d after inoculation, leaf disks, 7 dpi, mean of ten replicates
  Disease severity: 23.76%
Plasmopara viticola [3]; 400 μM sprayed +2 d after inoculation, leaf disks, 7 dpi, mean of ten replicates
  Disease severity: 36.00%
Plasmopara viticola [3]; 400 μM sprayed -2 h before inoculation, leaf disks, 7 dpi, mean of ten replicates
  Disease severity: 1.58%
Plasmopara viticola [3]; 400 μM sprayed -6 h before inoculation, leaf disks, 7 dpi, mean of ten replicates
  Disease severity: 5.62%
Plasmopara viticola [3]; 400 μM sprayed -1 d before inoculation, leaf disks, 7 dpi, mean of ten replicates
  Disease severity: 6.17%
Plasmopara viticola [3]; 400 μM sprayed -2 d before inoculation, leaf disks, 7 dpi, mean of ten replicates
  Disease severity: 3.96%
Plasmopara viticola [3]; 400 μM sprayed -5 d before inoculation, leaf disks, 7 dpi, mean of ten replicates
  Disease severity: 2.23%
Plasmopara viticola [3]; 400 μM sprayed -7 d before P. viticola inoculation, leaf disks, 7 dpi, mean of ten replicates from two experiments
  Disease severity: 9.72%
Plasmopara viticola [3]; 400 μM, Potter Precision Spray Tower, 7 dpi
  P. viticola severity on leaf disks after nebulization: reduction of P. viticola severity
Plasmopara viticola [3]; 400 μM, co-inoculation 0 h, leaf disks, 7 dpi, mean of ten replicates
  Disease severity: 2.88%
Plasmopara viticola [3]; 800 μM vs Kocide 2000 1.42 g l^-1, Potter Precision Spray Tower
  efficacy on leaf disks after nebulization compared with copper fungicide: as effective as the copper-based fungicide Kocide 2000
Plasmopara viticola [3]; nebulization on leaf disks, Potter Precision Spray Tower
  lowest concentration that maximises the efficacy against P. viticola: 400 µM
Plasmopara viticola [4]; 400 μM sprayed immediately before P. viticola inoculation, greenhouse Pinot noir plants
  disease severity of plants: 27.3 ± 5.2%
Plasmopara viticola [4]; 800 μM sprayed immediately before P. viticola inoculation, greenhouse plants
  disease severity of plants: 26.2 ± 4.2%
Plasmopara viticola [4]; 1 mM applied at -7 d, -2 d and 0 h, greenhouse plants, 7 dpi
  NoPv1 efficacy compared to control plants: higher than 60%
Plasmopara viticola [4]; 1 mM sprayed -7 d before inoculation, greenhouse plants, 7 dpi, mean of ten replicates from two experiments
  Disease severity: 15.89%
Plasmopara viticola [4]; 1 mM sprayed immediately before P. viticola inoculation, greenhouse plants
  disease severity of plants: 20.8 ± 2.4%
Plasmopara viticola [4]; 2 mM sprayed immediately before P. viticola inoculation, greenhouse plants
  disease severity of plants: 21.1 ± 4.2
Plasmopara viticola [4]; greenhouse plants, sprayed immediately before inoculation
  lowest concentration showing a P. viticola severity comparable to the copper treatment: 1 mM
Escherichia coli
  growth inhibition of E. coli: not able to inhibit the growth
[5]
  growth inhibition of A. tumefaciens: not able to inhibit the growth
[6]
  growth inhibition of B. amyloliquefaciens: not able to inhibit the growth
Erysiphe necator
  effect on E. necator disease severity on leaves: not able to reduce the disease severity on leaves
Phytophthora infestans
  inhibition of P. infestans growth in vitro: able to inhibit P. infestans growth in vitro
[7]; 5 zoospores out of 160
  zoospores in which a germ tube primordium could be detected: 3.12%
[7]; n = 160
  P. viticola germ tube formation: unable to develop any germ tube
HKC8 cells; DMEM-F12, 24 h
  cell viability (MTT, absorbance at 570 nm) vs control: No significant differences between control and treated samples
HKC8 cells; DMEM-F12, 48 h
  cell viability (MTT, absorbance at 570 nm) vs control: cytotoxic effects could only be observed at 1 K cell density
[8]; 400 µM (P1)
  FV/FM, maximum quantum yield of photosystem II: 0.73 ± 0.01
  Y(II), effective quantum yield of photosystem II: 0.33 ± 0.02
[8]; 1 mM (P2)
  FV/FM, maximum quantum yield of photosystem II: 0.74 ± 0.01
  Y(II), effective quantum yield of photosystem II: 0.33 ± 0.01
